Test results published in US20110230472A1, “RING-FUSED AZOLE DERIVATIVE HAVING PI3K-INHIBITING ACTIVITY” (Shionogi & Co., Ltd., priority 2008, published 2011).

Molecular target: PI-3 kinase γ (Homo sapiens, UniProt P48736)
Assay: PI3Kγ inhibitory activity, PI3-kinase HTRF assay (inhibition ratio)
Type: biochemical
Conditions: 0.5 h; PI3Kγ, compound at 10 μM
Protocol: The PI3Kγ inhibitory activity of a compound was evaluated using PI3-kinase HTRF™ assay (Millipore) according to the following procedure:
To each well of a testing plate, 5 μL of a compound solution containing 10% DMSO (200 μmol/L or 40 μmol/L as the concentration of the compound), 5 μL of a substrate solution (40 μmol/L phosphatidylinositol (4,5)-bisphosphate, 20 mmol/L MgCl2, 10 mmol/L DTT), and 5 μL of a enzyme solution (80 μg/mL PI-3 kinase γ, 10 mmol/L MgCl2, 5 mmol/L DTT) were added, and then allowed to stand for 10 minutes.
Then, 5 μL of a reaction solution (40 μmol/L ATP, 10 mmol/L MgCl2, 5 mmol/L DTT) was added thereto. After reacting for 30 minutes at room temperature, 5 μL of a solution containing EDTA and biotinylated phosphatidylinositol (3,4,5)-triphosphate were added to quench the reaction.
5 μL of a detection reagent containing a europium-labeled anti-GST antibody, the GST-tagged PH domain, and allophycocyanin-labeled streptavidin was added thereto. After 18 hours, HTRF (excitation wavelength: 330 nm, measured wavelengths: 620 nm and 665 nm) was measured.
HTRF ratio was defined as the value obtained by dividing the amount of fluorescence obtained at the measured wavelength 665 nm by the amount of fluorescence obtained at 620 nm. The HTRF ratio in the absence of a compound was defined as 100% activity and the HTRF ratio in the absence of PI-3 kinase γ was defined as 0% activity to calculate an inhibition ratio which was defined as the PI3Kγ inhibitory activity of a compound at 50 μmol/L or 10 μmol/L.

PI-3 kinase γ, sequence (P48736 whole entry): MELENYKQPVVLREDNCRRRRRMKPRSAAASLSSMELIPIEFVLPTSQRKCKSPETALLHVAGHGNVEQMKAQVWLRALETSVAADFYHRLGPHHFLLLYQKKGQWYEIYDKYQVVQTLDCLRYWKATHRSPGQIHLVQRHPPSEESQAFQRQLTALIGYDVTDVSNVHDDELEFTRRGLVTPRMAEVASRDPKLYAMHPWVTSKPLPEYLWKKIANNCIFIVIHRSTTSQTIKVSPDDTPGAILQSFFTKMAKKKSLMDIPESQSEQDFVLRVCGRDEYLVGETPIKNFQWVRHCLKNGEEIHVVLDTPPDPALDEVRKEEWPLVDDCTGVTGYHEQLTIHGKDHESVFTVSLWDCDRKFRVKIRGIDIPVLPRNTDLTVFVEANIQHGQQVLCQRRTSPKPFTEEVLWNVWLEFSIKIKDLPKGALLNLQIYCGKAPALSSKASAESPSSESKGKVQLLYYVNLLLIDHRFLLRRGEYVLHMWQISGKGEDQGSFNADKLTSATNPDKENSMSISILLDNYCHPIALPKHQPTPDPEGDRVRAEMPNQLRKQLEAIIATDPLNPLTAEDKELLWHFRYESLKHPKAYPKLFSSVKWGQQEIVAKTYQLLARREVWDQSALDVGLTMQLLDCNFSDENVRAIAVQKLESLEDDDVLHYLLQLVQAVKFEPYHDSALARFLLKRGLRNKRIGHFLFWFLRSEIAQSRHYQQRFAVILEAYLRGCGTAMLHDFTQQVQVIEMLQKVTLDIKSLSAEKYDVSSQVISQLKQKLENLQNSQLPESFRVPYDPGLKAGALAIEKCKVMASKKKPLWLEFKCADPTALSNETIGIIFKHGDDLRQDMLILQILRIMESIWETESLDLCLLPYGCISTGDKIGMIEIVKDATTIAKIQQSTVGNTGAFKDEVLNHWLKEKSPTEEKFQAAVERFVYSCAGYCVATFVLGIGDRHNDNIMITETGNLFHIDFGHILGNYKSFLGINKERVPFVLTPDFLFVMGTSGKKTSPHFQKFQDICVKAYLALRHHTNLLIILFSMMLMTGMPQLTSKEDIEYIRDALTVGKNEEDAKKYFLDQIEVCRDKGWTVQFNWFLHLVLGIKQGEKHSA

Row | inhibition at 10 µM | SMILES
1 | ≥ 95% | COc1cc(N2CCc3nc(NC(=O)NCCCOC(C)(C)C)sc3C2)nc(OC)n1 [Compound I-288]
2 | ≥ 95% | COc1cc(N2CCc3nc(NC(=O)Cc4cccc(C(F)(F)F)c4)sc3C2)nc(OC)n1 [Compound I-269]
3 | 78% | CNC(=O)Nc1cc2n(n1)CCN2c1ccc(C(=O)NC)s1 [Compound I-256]
4 | ≥ 95% | COc1cc(N2CCc3nc(NC(=O)CCNC(=O)OC(C)(C)C)sc3C2)nc(OC)n1 [Compound I-281]

Same assay, conditions: 0.5 h; PI3Kγ, compound at 50 μM

Row | SMILES | inhibition at 50 µM
5 | CNC(=O)Nc1nc2c(s1)CN(c1cc(Cl)nc(Cl)n1)CC2 [Compound I-111] | ≥ 95%
6 | CCOC(=O)CNC(=O)Nc1cc2n(n1)CCN2C(=O)OC(C)(C)C [Compound I-57] | ≥ 95%
7 | CNC(=O)Nc1cc2n(n1)CCN2c1cc(C#CC2CCN(C(=O)OC(C)(C)C)CC2)cc(C(=O)N2CCOCC2)c1 [Compound I-250] | ≥ 95%
8 | COc1cc(N2CCc3nc(NC(=O)C(=O)c4ccccc4)sc3C2)nc(OC)n1 [Compound I-259] | 89%
9 | CNC(=O)Nc1nc2c(s1)CN(c1cc(C(=O)NC3CCCC3)nc(Cl)n1)CC2 [Compound I-110] | ≥ 95%
10 | CNC(=O)Nc1nc2c(s1)CN(c1cc(Oc3ccccc3)nc(OCCCOCc3ccccc3)n1)CC2 [Compound I-232] | 76%
11 | O=C(Nc1cc2n(n1)CCN2c1ccccc1)c1ccccc1 [Compound I-135] | ≥ 95%
12 | CNC(=O)Nc1nc2c(s1)CN(c1cncc(Cl)n1)CC2 [Compound I-123] | ≥ 95%
13 | CNC(=O)Nc1cc2n(n1)CCN2c1cc(C#Cc2ccccc2)cc(C(=O)N2CCOCC2)c1 [Compound I-228] | 85%
14 | O=C(Cn1ccnc1)Nc1cc2n(n1)CCN2c1cccc(Cl)c1 [Compound I-242] | ≥ 95%
15 | COc1cc(N2CCc3nc(NC(=O)[C@@H](O)c4ccccc4)sc3C2)nc(OC)n1 [Compound I-258] | 92%

Second part, the molecule after the results:

Row | inhibition at 50 µM | SMILES
16 | ≥ 95% | O=C(O)CCNC(=O)Nc1cc2n(n1)CCN2c1cccc(Cl)c1 [Compound I-215]
17 | ≥ 95% | CNC(=O)Nc1cc2n(n1)CCN2c1cccc(CC(=O)OC(C)(C)C)c1 [Compound I-152]
18 | 89% | CNC(=O)Nc1cc2n(n1)CCN2C(=O)c1ccccc1 [Compound I-5]
19 | ≥ 95% | CNC(=O)Nc1cc2n(n1)CCN2c1cc(C(=O)N2CCOCC2)cc(-c2cccc(O)c2)c1 [Compound I-220]
20 | ≥ 95% | CNC(=O)Nc1cc2n(n1)CCN2c1ccc(F)c(OC)c1 [Compound I-168]
21 | ≥ 95% | CC(=O)Nc1cc2n(n1)CCN2C(=O)c1ccccc1 [Compound I-2]
22 | ≥ 95% | CNC(=O)Nc1cc2n(n1)CCN2c1cccc(-c2cnco2)c1 [Compound I-84]
23 | ≥ 95% | CNC(=O)Nc1cc2n(n1)CCN2c1cccc(S(C)(=O)=O)c1 [Compound I-191]
24 | 88% | CC(=O)N1CCC(C(=O)Nc2cc3n(n2)CCN3c2cccc(Cl)c2)CC1 [Compound I-236]
25 | 85% | CNC(=O)Nc1cc2n(n1)CCN2c1ccccn1 [Compound I-88]
26 | 80% | CC(C)(C)OC(=O)CCNC(=O)Nc1cc2n(n1)CCN2c1cccc(Cl)c1 [Compound I-212]
27 | ≥ 95% | CNC(=O)Nc1cc2n(n1)CCN2c1cc(C(=O)O)cc(-c2ccccc2)c1 [Compound I-163]
28 | 89% | O=C(O)CC(=O)Nc1cc2n(n1)CCN2c1cccc(Cl)c1 [Compound I-235]
29 | 89% | CNC(=O)Nc1cc2n(n1)CCN2c1cc(Br)cc(C(=O)NCCC(=O)O)c1 [Compound I-186]
30 | ≥ 95% | CNC(=O)Nc1cc2n(n1)CCN2c1cc(C(=O)OC)cc(-c2ccccc2)c1 [Compound I-161]
31 | ≥ 95% | CNC(=O)Nc1cc2n(n1)CCN2c1cc(Nc2ccccc2)cc(C(=O)OC)c1 [Compound I-162]
32 | 87% | CC(=O)NCCC(=O)Nc1cc2n(n1)CCN2c1cccc(Cl)c1 [Compound I-244]
33 | ≥ 95% | CNC(=O)Nc1cc2n(n1)CCN2c1cc(Nc2ccccc2)cc(C(=O)O)c1 [Compound I-166]
34 | ≥ 95% | COc1cccc(N2CCn3nc(NC(C)=O)cc32)c1 [Compound I-139]
35 | ≥ 95% | CNC(=O)Nc1cc2n(n1)CCN2c1cc(Br)cc(C(=O)N2CCOCC2)c1 [Compound I-173]
36 | ≥ 95% | CNC(=O)Nc1cc2n(n1)CCN2c1ccc(F)c(C(=O)OC(C)(C)C)c1 [Compound I-184]
37 | ≥ 95% | CNC(=O)Nc1cc2n(n1)CCN2c1cccc(C(=O)O)c1 [Compound I-91]
38 | ≥ 95% | CNC(=O)Nc1cc2n(n1)CCN2c1cc(Br)cc(C(N)=O)c1 [Compound I-178]

Same assay, conditions: 0.5 h; compound at 10 μmol/L

Row | SMILES | inhibition at 10 µM
39 | COC(=O)Nc1ccccc1C(=O)Nc1cc2n(n1)CCN2c1ccc2c(c1)CCN(C)C2=O [Compound I-482] | ≥ 95%
40 | CN1CCc2cc(N3CCn4nc(NC(=O)[C@@H]5CCC(=O)N5)cc43)ccc2C1=O [Compound I-506] | 84%
41 | COc1cc(N2CCc3nc(NC(=O)N/C(C)=C\C(=O)NC(C)(C)C)sc3C2)nc(OC)n1 [Compound I-392] | ≥ 95%
42 | Cc1ccc(C(=O)N2CCc3nc(NC(=O)Nc4ccccc4C(=O)NC(C)C)sc3C2)cc1 [Compound I-515] | 85%
43 | CCCOc1ccc(C(=O)Nc2cc3n(n2)CCN3c2ccc3c(c2)CCN(C)C3=O)cc1 [Compound I-476] | 94%
44 | COc1cccc(C(=O)Nc2cc3n(n2)CCN3c2ccc3c(c2)CCN(C)C3=O)c1 [Compound I-462] | ≥ 95%
45 | CN1CCc2cc(N3CCn4nc(NC(=O)c5ccc(NC(=O)OC(C)(C)C)cc5)cc43)ccc2C1=O [Compound I-480] | 86%
46 | COc1cccc(NC(=O)Nc2nc3c(s2)CN(c2cc(OC)nc(OC)n2)CC3)c1 [Compound I-295] | 93%
47 | COCCOc1ccc(C(=O)Nc2cc3n(n2)CCN3c2ccc3c(c2)CCN(C)C3=O)cc1 [Compound I-549] | ≥ 95%
48 | CN(C)C(=O)Nc1cc2n(n1)CCN2c1ccc2c(c1)CCN(C)C2=O [Compound I-539] | ≥ 95%
49 | COc1cc(N2CCc3nc(NC(=O)Nc4cccc(C(=O)OC(C)(C)C)c4)sc3C2)nc(OC)n1 [Compound I-321] | 95%
50 | COc1cc(N2CCc3nc(NC(=O)c4ccsc4)sc3C2)nc(OC)n1 [Compound I-459] | 92%
51 | CN1CCc2cc(N3CCn4nc(NC(=O)c5cccc(OC(C)(C)C(=O)OC(C)(C)C)c5)cc43)ccc2C1=O [Compound I-469] | 85%
52 | CCCNS(=O)(=O)c1ccc(C(=O)Nc2cc3n(n2)CCN3c2ccc3c(c2)CCN(C)C3=O)cc1 [Compound I-526] | 90%
53 | CN1CCc2cc(N3CCn4nc(NC(=O)N5CCCC5)cc43)ccc2C1=O [Compound I-453] | 76%
54 | Nc1cc2n(n1)CCN2c1ccc2cnccc2c1 [Compound I-316] | 75%
55 | COc1cc(N2CCc3nc(NC(=O)NCc4cc(Br)no4)sc3C2)nc(OC)n1 [Compound I-329] | 89%
56 | CCOC(=O)CCCCC(=O)Nc1cc2n(n1)CCN2c1cccc(OC)c1 [Compound I-307] | 86%
57 | CC(C)CCOc1ccc(C(=O)Nc2cc3n(n2)CCN3c2ccc3c(c2)CCN(C)C3=O)cc1 [Compound I-551] | 84%
58 | COc1cc(N2CCc3nc(NC(=O)NCCC(=O)N4CCC[C@H]4C(=O)N4CCCC4)sc3C2)nc(OC)n1 [Compound I-312] | ≥ 95%
59 | CN1CCc2cc(N3CCn4nc(NC(=O)c5cnc(NC(=O)OC(C)(C)C)o5)cc43)ccc2C1=O [Compound I-376] | ≥ 95%
60 | COc1cc(N2CCc3nc(NC(=O)C4CN(C(=O)OC(C)(C)C)C4)sc3C2)nc(OC)n1 [Compound I-529] | 82%
61 | COc1cc(N2CCc3nc(NC(=O)c4ccc(C)s4)sc3C2)nc(OC)n1 [Compound I-458] | 92%
62 | CC(C)c1cc(C(=O)Nc2cc3n(n2)CCN3c2ccc3c(c2)CCN(C)C3=O)cs1 [Compound I-427] | 88%
63 | Cc1csc(C(=O)Nc2cc3n(n2)CCN3c2ccc3c(c2)CCN(C)C3=O)c1 [Compound I-361] | 80%

Other lines, results leading:

Row | inhibition at 10 µM | SMILES
64 | ≥ 95% | COC(=O)c1csc(C(=O)Nc2cc3n(n2)CCN3c2ccc3c(c2)CCN(C)C3=O)c1 [Compound I-399]
65 | ≥ 95% | COC(=O)Nc1cc[nH]c1C(=O)Nc1cc2n(n1)CCN2c1cccc(OC)c1 [Compound I-364]
66 | 87% | CN1CCc2cc(N3CCn4nc(NC(=O)NCCC(=O)O)cc43)ccc2C1=O [Compound I-537]

Same assay, conditions: 0.5 h; compound at 50 μmol/L

Row | inhibition at 50 µM | SMILES
67 | 84% | CN1CCc2cc(N3CCn4nc(NC(=O)C5CCCO5)cc43)ccc2C1=O (stereo not drawn) [Compound I-372]
68 | 88% | COc1cc(N2CCc3nc(NC(=O)NC4CCC(C(C)(C)C)CC4)sc3C2)nc(OC)n1 (stereo not drawn) [Compound I-290]
69 | 84% | CC(=O)Nc1cc2n(n1)CCN2c1ccc2c(c1)CCNC2 [Compound I-305]
